{
  "source": "patent US8815940B2",
  "about": "“Coumarin-chalcones as anticancer agents” (Council of Scientific & Industrial Research, priority 2010, dated 2014)",
  "key": {"[1]": {"system": "KB (oral squamous cell carcinoma)", "assay": "sulforhodamine B cell cytotoxicity assay, KB", "type": "cell-based", "conditions": "Homo sapiens; Table 2; SRB assay, 48 h of exposure", "procedure": "(§1) The human cancer cell lines—KB (oral squamous cell carcinoma). C33A (cervical carcinoma), MCF-7 (breast adenocarcinoma), A549 (lung carcinoma) and mouse embryo fibroblast (NIH3T3) were obtained from American Type Culture Collection (ATCC), USA. These cells were grown in recommended media supplemented with 10% FBS, 50 μg/mL gentamycin and 2.5 μg/mL amphotericin B in a 5% CO2 humidified atmosphere at 37° C. Cells below 15 passage level were used for this study. A colorimetric sulforhodamine B assay was used for the measurement of cell cytotoxicity. 1×10^4 cells (in 180 μL) were added to each well of 96-well plate and incubated overnight to allow for cell attachment. Cells were then treated with serial two-fold dilutions of test compounds (100 to 1.6 μM) and untreated cells receiving the same volume of medium served as control. After 48 h of exposure, cells were fixed with ice-cold 50% TCA, stained with 0.4% (w/v) SRB in 1% acetic acid, washed and air dried. Bound dye was dissolved in 150 μL of 10 mM tris base. The plates were read at 540 nm absorbance on plate reader (Polarstar Galaxy, BMG, Germany). The cytotoxic effects of compounds were calculated as % inhibition in cell growth as per the formula […]."}, "[2]": {"system": "C33A (cervical carcinoma)", "assay": "sulforhodamine B cell cytotoxicity assay, C33A", "type": "cell-based, human", "conditions": "for IC50: Homo sapiens, C-33-A", "procedure": "as §1"}, "[3]": {"system": "MCF-7 (breast adenocarcinoma)", "assay": "sulforhodamine B cell cytotoxicity assay, MCF-7", "type": "cell-based", "conditions": "Homo sapiens, MCF7; Table 2; SRB assay, 48 h of exposure", "procedure": "as §1"}, "A549 (lung carcinoma)": {"system": "A549 (lung carcinoma)", "assay": "sulforhodamine B cell cytotoxicity assay, A549", "type": "cell-based", "conditions": "Homo sapiens, Table 2, SRB assay, 48 h of exposure", "procedure": "as §1"}, "[4]": {"system": "mouse embryo fibroblast (NIH3T3)", "assay": "sulforhodamine B cell cytotoxicity assay, NIH3T3 non-cancer cells", "type": "cell-based", "procedure": "as §1"}, "[5]": {"system": "HeLa Human cervical cancer cells", "assay": "human tumor xenograft in SCID mice, tumor growth", "type": "in vivo", "conditions": "for T/C (tumor growth inhibition index): 100 mg/kg daily oral upto 15 days; for RTV (relative tumor volume): 100 mg/kg p.o. daily up to 15 days", "procedure": "(§2) The in vivo efficacy studies were performed using human tumor xenografts in SCID mice. Human cervical cancer cells (HeLa) were injected subcutaneously (1×10^7 cells in 100 μl HBSS medium) on the right flank of each mouse. Tumor bearing mice were divided randomly into treatment groups and the treatment schedules began on day 7 of the xenograft. The test compound (S009-0131) was administered orally to each mouse at a daily dose of 100 mg/kg body weight, for 15 days. The standard anti-cancer drug Adriamycin (ADR) was used as ‘positive’ control and given to each mouse as an i.v. dose of 2 mg/kg body weight, Q7d×3 ([…]). The group of vehicle treated animals served as ‘negative’ control.\n(§3) The tumor volume, body weight and signs of overt toxicity were monitored and recorded for the entire duration of the experiment (60 days). Tumor volumes were calculated using the formula (a×b2)/2, where a, b are two longest perpendicular diameters. Tumor growth was expressed in terms of relative tumor volume (RTV) which is the ratio of tumor volume on a particular day to the tumor volume on day 1 of the study. Tumor growth inhibition index (T/C) was calculated as follows: T/C=Average RTV of test group mice/Average RTV of control group mice."}, "[6]": {"assay": "animal weight and overt toxicity in the xenograft study", "type": "in vivo, SCID mice", "conditions": "for Average Animal weight: 100 mg/kg daily oral upto 15 days", "procedure": "as §2, §3"}, "human cancer cell lines": {"system": "human cancer cell lines", "assay": "in vitro anticancer activity, cell line panel (cell line not specified)", "type": "cell-based", "conditions": "poor activity or lack of activity against other cell lines", "procedure": "as §1"}},
  "note": "Like-named read-outs stand apart in the source and are kept apart here.",
  "data": [
    {"smiles": "CCOC(=O)c1cc2cc(C=CC(=O)c3ccc(C)cc3)cc(C(C)CC)c2oc1=O", "note": "(stereo not shown) [Example S009-0131, Ethyl 8-sec-butyl-2-oxo-6-(3-oxo-3-p-tolylprop-1-enyl)-2H-chromene-3-carboxylate]", "values": [
      {"measurement": "IC50", "setting": "[1]", "value": 18, "unit": "µM"},
      {"measurement": "IC50", "setting": "[2]; Table 1, SRB assay, 48 h of exposure, read-out: IC50 C33A (cervical cancer)", "value": 3.59, "unit": "µM"},
      {"measurement": "IC50", "setting": "[2]; Table 2, SRB assay, 48 h of exposure, read-out: IC50 C33A (Cervical)", "value": 3.59, "unit": "µM"},
      {"measurement": "IC50", "setting": "[2]; read-out: IC50 against the C33A cell line", "value": 3.59, "unit": "µM"},
      {"measurement": "activity against cervical cancer (C33A)", "setting": "[2]; in words", "value": "highly active"},
      {"measurement": "IC50", "setting": "[3]", "value": 81.1, "unit": "µM"},
      {"measurement": "IC50", "setting": "A549 (lung carcinoma)", "value": 32.8, "unit": "µM"},
      {"measurement": "IC50", "setting": "[4]; Table 1, SRB assay, 48 h of exposure, read-out: IC50 NIH3T3 (mouse fibroblast)", "value": "> 150", "unit": "µM"},
      {"measurement": "IC50", "setting": "[4]; Table 2, SRB assay, 48 h of exposure, read-out: IC50 NIH3T3 (Non-cancer, fibroblast)", "value": "> 150", "unit": "µM"},
      {"measurement": "IC50", "setting": "[4]; read-out: IC50 fibroblast cells NIH3T3", "value": "> 150", "unit": "µM"},
      {"measurement": "activity compared with standard drug adriamycin", "setting": "[5]; HeLa xenograft, SCID mice", "value": "somewhat better than that of the standard drug adriamycin"},
      {"measurement": "T/C (tumor growth inhibition index)", "setting": "[5]; day 1", "value": 1},
      {"measurement": "RTV (relative tumor volume)", "setting": "[5]; day 1", "value": 1},
      {"measurement": "T/C (tumor growth inhibition index)", "setting": "[5]; day 5", "value": 0.58},
      {"measurement": "RTV (relative tumor volume)", "setting": "[5]; day 5", "value": 0.76},
      {"measurement": "T/C (tumor growth inhibition index)", "setting": "[5]; day 9", "value": 0.48},
      {"measurement": "RTV (relative tumor volume)", "setting": "[5]; day 9", "value": 0.79},
      {"measurement": "T/C (tumor growth inhibition index)", "setting": "[5]; day 12", "value": 0.61},
      {"measurement": "RTV (relative tumor volume)", "setting": "[5]; day 12", "value": 1.21},
      {"measurement": "T/C (tumor growth inhibition index)", "setting": "[5]; day 15", "value": 0.39},
      {"measurement": "RTV (relative tumor volume)", "setting": "[5]; day 15", "value": 1.28},
      {"measurement": "T/C (tumor growth inhibition index)", "setting": "[5]; day 19", "value": 0.28},
      {"measurement": "RTV (relative tumor volume)", "setting": "[5]; day 19", "value": 1.01},
      {"measurement": "T/C (tumor growth inhibition index)", "setting": "[5]; day 22", "value": 0.33},
      {"measurement": "RTV (relative tumor volume)", "setting": "[5]; day 22", "value": 1.73},
      {"measurement": "T/C (tumor growth inhibition index)", "setting": "[5]; day 25", "value": 0.29},
      {"measurement": "RTV (relative tumor volume)", "setting": "[5]; day 25", "value": 1.82},
      {"measurement": "T/C (tumor growth inhibition index)", "setting": "[5]; day 29", "value": 0.33},
      {"measurement": "RTV (relative tumor volume)", "setting": "[5]; day 29", "value": 2.39},
      {"measurement": "T/C (tumor growth inhibition index)", "setting": "[5]; day 33", "value": 0.42},
      {"measurement": "RTV (relative tumor volume)", "setting": "[5]; day 33", "value": 4.20},
      {"measurement": "T/C (tumor growth inhibition index)", "setting": "[5]; day 37", "value": 0.42},
      {"measurement": "T/C (tumor growth inhibition index)", "setting": "[5]; day 41", "value": 0.44},
      {"measurement": "T/C (tumor growth inhibition index)", "setting": "[5]; day 44", "value": 0.45},
      {"measurement": "T/C (tumor growth inhibition index)", "setting": "[5]; day 51", "value": 0.38},
      {"measurement": "tumor volumes relative to the vehicle control", "setting": "[5]; oral administration, mice bearing HeLa cells", "value": "significant reduction of tumor volumes"},
      {"measurement": "Average Animal weight", "setting": "[6]; day 1", "value": 24.2, "unit": "grams"},
      {"measurement": "Average Animal weight", "setting": "[6]; day 5", "value": 24.2, "unit": "grams"},
      {"measurement": "Average Animal weight", "setting": "[6]; day 9", "value": 23.5, "unit": "grams"},
      {"measurement": "Average Animal weight", "setting": "[6]; day 12", "value": 18.5, "unit": "grams"},
      {"measurement": "Average Animal weight", "setting": "[6]; day 15", "value": 22.6, "unit": "grams"},
      {"measurement": "Average Animal weight", "setting": "[6]; day 19", "value": 22.4, "unit": "grams"},
      {"measurement": "Average Animal weight", "setting": "[6]; day 22", "value": 23.0, "unit": "grams"},
      {"measurement": "Average Animal weight", "setting": "[6]; day 25", "value": 23.2, "unit": "grams"},
      {"measurement": "Average Animal weight", "setting": "[6]; day 29", "value": 23.6, "unit": "grams"},
      {"measurement": "Average Animal weight", "setting": "[6]; day 33", "value": 23.3, "unit": "grams"},
      {"measurement": "Average Animal weight", "setting": "[6]; day 37", "value": 23.0, "unit": "grams"},
      {"measurement": "Average Animal weight", "setting": "[6]; day 41", "value": 23.4, "unit": "grams"},
      {"measurement": "Average Animal weight", "setting": "[6]; day 44", "value": 23.8, "unit": "grams"},
      {"measurement": "Average Animal weight", "setting": "[6]; day 51", "value": 23.4, "unit": "grams"},
      {"measurement": "toxicity to the animals (loss of weight)", "setting": "[6]; during the period of the study", "value": "apparently non-toxic"},
      {"measurement": "selectivity among cell lines", "setting": "human cancer cell lines", "value": "most selective"}
    ]}
  ]
}
